According to BindingDB's records for patent US20240158408 (280 Bio, 2024):

Experiments:
[1] = biological target: Phosphatidylinositol 4,5-bisphosphate 3-kinase catalytic subunit alpha isoform [H1047R] (Homo sapiens, UniProt P42336, H1047R)
[2] = biological target: Phosphatidylinositol 4,5-bisphosphate 3-kinase catalytic subunit alpha isoform (Homo sapiens, UniProt P42336); experiment: ADP-Glo Kinase Assay
Sequence of Phosphatidylinositol 4,5-bisphosphate 3-kinase catalytic subunit alpha isoform (P42336 whole entry, canonical isoform): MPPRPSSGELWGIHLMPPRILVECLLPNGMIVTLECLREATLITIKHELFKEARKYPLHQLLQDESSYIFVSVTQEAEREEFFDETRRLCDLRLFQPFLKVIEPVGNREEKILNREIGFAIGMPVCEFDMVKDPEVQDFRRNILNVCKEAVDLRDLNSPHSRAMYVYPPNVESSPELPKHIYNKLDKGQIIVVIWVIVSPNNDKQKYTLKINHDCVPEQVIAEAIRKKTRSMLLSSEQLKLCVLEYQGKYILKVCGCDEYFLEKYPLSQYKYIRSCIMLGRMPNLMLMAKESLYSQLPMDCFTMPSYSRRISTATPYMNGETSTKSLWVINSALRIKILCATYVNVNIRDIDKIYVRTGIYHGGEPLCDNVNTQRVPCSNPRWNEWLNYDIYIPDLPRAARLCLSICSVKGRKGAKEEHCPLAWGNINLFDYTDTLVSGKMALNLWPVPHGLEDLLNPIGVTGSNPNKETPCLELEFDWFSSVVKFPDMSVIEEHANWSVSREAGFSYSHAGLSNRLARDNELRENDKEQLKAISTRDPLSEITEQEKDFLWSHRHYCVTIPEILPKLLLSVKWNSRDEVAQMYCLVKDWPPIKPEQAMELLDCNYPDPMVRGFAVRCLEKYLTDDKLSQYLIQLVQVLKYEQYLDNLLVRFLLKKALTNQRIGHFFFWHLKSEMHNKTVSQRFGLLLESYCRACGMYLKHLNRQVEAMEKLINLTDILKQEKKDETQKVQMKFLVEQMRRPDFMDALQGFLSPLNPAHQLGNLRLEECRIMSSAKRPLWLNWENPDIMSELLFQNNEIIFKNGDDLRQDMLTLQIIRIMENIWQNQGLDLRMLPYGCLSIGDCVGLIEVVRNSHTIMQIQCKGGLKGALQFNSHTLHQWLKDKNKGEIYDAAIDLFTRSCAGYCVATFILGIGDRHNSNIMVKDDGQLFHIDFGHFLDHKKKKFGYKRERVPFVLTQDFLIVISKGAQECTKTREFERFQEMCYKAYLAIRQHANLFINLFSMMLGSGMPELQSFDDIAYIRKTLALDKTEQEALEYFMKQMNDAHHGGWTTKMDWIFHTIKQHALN

Sequence of Phosphatidylinositol 4,5-bisphosphate 3-kinase catalytic subunit alpha isoform [H1047R] (P42336 whole entry H1047R, canonical isoform): as the sequence (P42336 whole entry, canonical isoform) above, with H1047R counted along it

Row | IC50 [1] [µM] | IC50 [2] [µM] | Compound
1 | < 0.25 | > 10 | Cn1nc2ccc(NC(=O)c3cc(F)cc(C(F)(F)F)c3)c3c2c1C(=O)NC3c1cc(Cl)ccc1Cl (stereo unspecified) [US20240158408, Compound YL104]
2 | < 0.25 | > 10 | Cn1nc2c(-c3ccc4ncnn4c3C#N)cc(NC(=O)c3cc(F)cc(C(F)(F)F)c3)c3c2c1C(=O)NC3c1cc(F)ccc1Cl (stereo unspecified) [US20240158408, Compound YL106]
3 | < 0.25 | > 10 | Cn1nc2c(-c3ccc4ncnn4c3C#N)cc(NC(=O)c3cc(F)cc(C(F)(F)F)c3)c3c2c1C(=O)NC3c1cc(Cl)ccc1Cl (stereo unspecified) [US20240158408, Compound YL107]
